{"source": "patent US20230145868A1", "about": "“UREA INHIBITORS OF MICRO-RNA” (Board of Regents, The University of Texas System, priority 2020, published 2023)", "key": {"[1]": {"system": "proteins on the PI3K/AKT pathway", "assay": "Reverse phase protein array (RPPA), PI3K/AKT pathway", "format": "cell-based, human", "conditions": "U251; 10 μM (FIG. 23); p<0.01", "experimental": "Proteomics analysis was conducted at the Reverse Phase Protein Array Core facility at MD Anderson Cancer Center. Briefly, controls and treated samples were analyzed in triplicate for 486 unique antibodies. The outputs were then normalized for protein loading and transformed to the linear value, and the normalized data was logy transformed (log2(x+1)) and sorted by FDR-adjusted p-values with a significance level of p<0.05. Differentially expressed proteins between groups were identified using the moderated t-test from LIMMA package. […] Analyses and graphical representations were carried out in R. When preparing the data for analysis, the loge fold change was calculated and adjusted p-value was used for analysis. Gene symbols were converted using the DAVID bioinformatics resource and the clusterProfiler data visualization and analysis package was used for pathway enrichment analysis. For pathway analysis, the Hallmark gene set and Gene Ontology was used for gene set and pathway enrichment."}, "[2]": {"assay": "Microsomal stability assay, mouse", "format": "in vitro ADME", "conditions": "1 μM test compound, unit printed in b356 only", "experimental": "(§1) The liver microsomal incubation mixture was composed of liver microsomes (with a concentration of 0.5 mg microsomal protein/ml), the test compound (1 μM), MgCl2 (3 mM), EDTA (1 mM) in potassium phosphate buffer (100 mM, pH 7.4). Control substrates used were Midazolam and Ketanserin. The reaction was initiated with the addition of an NADPH regeneration solution (1.3 mM NADPH) and maintained at 37° C. with shaking. At five sequential time points ranging from 0 to 45 min, aliquots of the mixture (50 μL) were removed and quenched with acetonitrile (100 μL) containing an internal standard control (imipramine) Samples were analyzed after vortexing and centrifugation by liquid chromatography-mass spectrometry (LC-MS/MS). The in vitro t1/2 was then calculated and clearance followed literature."}, "[3]": {"assay": "Microsomal stability assay, human", "format": "in vitro ADME", "conditions": "pH 7.4; human liver microsomes; 1 μM test compound; unit printed in b356 only", "experimental": "as §1"}, "[4]": {"system": "Dicer", "assay": "Western blot, Dicer expression", "format": "cell-based, human", "conditions": "AsPC1, AGS, U251, LN229", "experimental": "Proteins are collected from cultured cells and lysed with 10× Lysis Buffer (Cell Signaling) freshly supplemented with a complete protease inhibitor cocktail and phosphatase inhibitors (Sigma). Bradford assay is used to measure protein concentration. Proteins are separated by polyacrylamide gel (Bio-rad) electrophoresis and were transferred to a 0.2 μm nitrocellulose membrane (Bio-rad). Quantification of protein expression was conducted using the image analysis software ImageJ."}, "[5]": {"conditions": "mouse, liver microsomes, pH 7.4, mouse liver microsomes"}}, "data": [{"compound": "Cc1ccc(F)c(NC(=O)Nc2ccc(-c3cccc4cn[nH]c34)cc2)c1", "note": "[Example 4, 1-(4-(1H-indazol-7-yl)phenyl)-3-(2-fluoro-5-methylphenyl)urea]", "values": [{"measurement": "expression of proteins on the PI3K/AKT pathway (RPPA)", "setting": "[1]", "value": "ten of the twelve proteins showing significant downregulation"}, {"measurement": "CLint", "setting": "[2]; mouse liver microsomes", "value": 58.9, "unit": "mL/min/kg"}, {"measurement": "Half-life", "setting": "[2]; mouse liver microsomes", "value": 1.55, "unit": "h"}, {"measurement": "CLint scaled at 1 μM", "setting": "[2]; [5]", "value": 58, "unit": "mL/min/kg"}, {"measurement": "half-life at 1 μM", "setting": "[2]; [5]", "value": 1.53, "unit": "h"}, {"measurement": "CLint scaled at 1 μM", "setting": "[3]", "value": 14.9, "unit": "mL/min/kg"}, {"measurement": "half-life at 1 μM", "setting": "[3]", "value": 1.93, "unit": "h"}, {"measurement": "Dicer expression (Western blot)", "setting": "[4]", "value": "little to no variation"}]}]}
